Common to all, as to experiment: relative viability (nuclei count vs DMSO), 5 days (fraction); higher = more cells survive
Compound in the assay “Carfilzomib + AZD7762”: CC(C)C[C@H](NC(=O)[C@H](CCc1ccccc1)NC(=O)CN1CCOCC1)C(=O)N[C@@H](Cc1ccccc1)C(=O)N[C@@H](CC(C)C)C(=O)[C@@]1(C)CO1 [Carfilzomib] + NC(=O)Nc1cc(-c2cccc(F)c2)sc1C(=O)N[C@H]1CCCNC1 [AZD7762] (partner 0.2 µM)
In a few lines: (§1)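 Relative viability is defined as nuclei in treated wells over nuclei in vehicle wells. Duplicate plates were run and medians reported. Lung cancer cell lines in 1536-well plates were dosed by pin tool one day after seeding, with one drug or with a fixed anchor-drug dose plus five library-drug doses (not always all listed) in √10 steps, and nuclei were counted after 5 days.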

Compound in the assay “Olaparib + Vorinostat”: O=C(c1cc(Cc2n[nH]c(=O)c3ccccc23)ccc1F)N1CCN(C(=O)C2CC2)CC1 [Olaparib] + O=C(CCCCCCC(=O)Nc1ccccc1)NO [Vorinostat] (partner 1 µM)
In a few lines: as §1

Compound in the assay “Crizotinib + Bortezomib”: C[C@@H](Oc1cc(-c2cnn(C3CCNCC3)c2)cnc1N)c1c(Cl)ccc(F)c1Cl [Crizotinib] + CC(C)C[C@H](NC(=O)[C@H](Cc1ccccc1)NC(=O)c1cnccn1)B(O)O [Bortezomib] (partner 0.002 µM)
The method in brief: as §1

Compound in the assay “Carfilzomib + Bortezomib”: CC(C)C[C@H](NC(=O)[C@H](CCc1ccccc1)NC(=O)CN1CCOCC1)C(=O)N[C@@H](Cc1ccccc1)C(=O)N[C@@H](CC(C)C)C(=O)[C@@]1(C)CO1 [Carfilzomib] + CC(C)C[C@H](NC(=O)[C@H](Cc1ccccc1)NC(=O)c1cnccn1)B(O)O [Bortezomib] (partner 0.002 µM)
In a few lines:
as §1

As to LU99A, the relative viability in the assay with Carfilzomib + AZD7762 (first compound 0.001 µM) was determined as 0.346; in the assay with Carfilzomib + AZD7762 (first compound 0.003162 µM), 0.368; with Carfilzomib + AZD7762 (first compound 0.01 µM) it was 0.33; with Carfilzomib + AZD7762 (first compound 0.03162 µM) it was 0.26; with Carfilzomib + AZD7762 (first compound 0.1 µM) it was 0.187; with Olaparib + Vorinostat (first compound 0.08 µM), 0.463. Moreover, the relative viability with Olaparib + Vorinostat (first compound 0.253 µM) was determined as 0.397; with Olaparib + Vorinostat (first compound 2.53 µM), 0.353; in the assay with Olaparib + Vorinostat (first compound 8 µM) it was 0.23; in the assay with Crizotinib + Bortezomib (first compound 0.01 µM), 1.1; in the assay with Crizotinib + Bortezomib (first compound 0.03162 µM), 1.14; with Crizotinib + Bortezomib (first compound 0.1 µM), 1.14. The relative viability was determined as 1.07 with Crizotinib + Bortezomib (first compound 0.3162 µM); 1.04 with Crizotinib + Bortezomib (first compound 1 µM); 1.09 in the assay with Carfilzomib + Bortezomib (first compound 0.001 µM); 1.31 with Carfilzomib + Bortezomib (first compound 0.003162 µM); 1.05 in the assay with Carfilzomib + Bortezomib (first compound 0.01 µM); 0.459 with Carfilzomib + Bortezomib (first compound 0.03162 µM). Further, the relative viability with Carfilzomib + Bortezomib (first compound 0.1 µM) was determined as 0.216.

With NCI-H3122, the relative viability with Carfilzomib + AZD7762 (first compound 0.001 µM) turned out to be 0.948; with Carfilzomib + AZD7762 (first compound 0.003162 µM), 1.05; with Carfilzomib + AZD7762 (first compound 0.01 µM), 1; with Carfilzomib + AZD7762 (first compound 0.03162 µM) it was 0.895; with Carfilzomib + AZD7762 (first compound 0.1 µM), 0.588; with Olaparib + Vorinostat (first compound 0.08 µM), 1.17. Further, the relative viability with Olaparib + Vorinostat (first compound 0.253 µM) was determined as 0.932; in the assay with Olaparib + Vorinostat (first compound 2.53 µM), 0.986; in the assay with Olaparib + Vorinostat (first compound 8 µM) it was 0.789; in the assay with Crizotinib + Bortezomib (first compound 0.01 µM) it was 0.96; with Crizotinib + Bortezomib (first compound 0.03162 µM) it was 0.942; with Crizotinib + Bortezomib (first compound 0.1 µM), 1.09. Further, the relative viability with Crizotinib + Bortezomib (first compound 0.3162 µM) came out at 0.889; with Crizotinib + Bortezomib (first compound 1 µM) it was 0.989; with Carfilzomib + Bortezomib (first compound 0.001 µM), 1.04; with Carfilzomib + Bortezomib (first compound 0.003162 µM), 0.996; with Carfilzomib + Bortezomib (first compound 0.01 µM), 1.05; in the assay with Carfilzomib + Bortezomib (first compound 0.03162 µM), 0.855. Also, in the assay with Carfilzomib + Bortezomib (first compound 0.1 µM), the relative viability turned out to be 0.814.

For LCLC-97TM1, the relative viability in the assay with Carfilzomib + AZD7762 (first compound 0.001 µM) turned out to be 0.219; with Carfilzomib + AZD7762 (first compound 0.003162 µM), 0.246; with Carfilzomib + AZD7762 (first compound 0.01 µM), 0.252; with Carfilzomib + AZD7762 (first compound 0.03162 µM), 0.158; in the assay with Carfilzomib + AZD7762 (first compound 0.1 µM), 0.0638; with Olaparib + Vorinostat (first compound 0.08 µM) it was 1.08. Also, the relative viability was determined as 0.63 with Olaparib + Vorinostat (first compound 0.253 µM); 0.615 with Olaparib + Vorinostat (first compound 2.53 µM); 0.599 with Olaparib + Vorinostat (first compound 8 µM); 0.641 with Crizotinib + Bortezomib (first compound 0.01 µM); 0.601 in the assay with Crizotinib + Bortezomib (first compound 0.03162 µM); 1.09 with Crizotinib + Bortezomib (first compound 0.1 µM). The relative viability with Crizotinib + Bortezomib (first compound 0.3162 µM) was 0.435; with Crizotinib + Bortezomib (first compound 1 µM), 0.519; in the assay with Carfilzomib + Bortezomib (first compound 0.001 µM) it was 0.292; with Carfilzomib + Bortezomib (first compound 0.003162 µM), 0.714; with Carfilzomib + Bortezomib (first compound 0.01 µM), 0.268; in the assay with Carfilzomib + Bortezomib (first compound 0.03162 µM) it was 0.0483. Also, the relative viability with Carfilzomib + Bortezomib (first compound 0.1 µM) came to 0.0702.

In the case of LXF-289, the relative viability in the assay with Carfilzomib + AZD7762 (first compound 0.001 µM) turned out to be 1.06; in the assay with Carfilzomib + AZD7762 (first compound 0.003162 µM), 1.14; with Carfilzomib + AZD7762 (first compound 0.01 µM) it was 1.14; with Carfilzomib + AZD7762 (first compound 0.03162 µM), 0.119; with Carfilzomib + AZD7762 (first compound 0.1 µM) it was 0.114; with Olaparib + Vorinostat (first compound 0.08 µM), 0.81. In addition, the relative viability was 0.731 with Olaparib + Vorinostat (first compound 0.253 µM); 0.807 with Olaparib + Vorinostat (first compound 2.53 µM); 0.722 in the assay with Olaparib + Vorinostat (first compound 8 µM); 0.917 with Crizotinib + Bortezomib (first compound 0.01 µM); 0.972 in the assay with Crizotinib + Bortezomib (first compound 0.03162 µM); 1.01 with Crizotinib + Bortezomib (first compound 0.1 µM). In addition, the relative viability worked out at 0.85 with Crizotinib + Bortezomib (first compound 0.3162 µM); 0.967 with Crizotinib + Bortezomib (first compound 1 µM); 1.03 with Carfilzomib + Bortezomib (first compound 0.001 µM); 0.957 with Carfilzomib + Bortezomib (first compound 0.003162 µM); 0.653 with Carfilzomib + Bortezomib (first compound 0.01 µM); 0.0711 with Carfilzomib + Bortezomib (first compound 0.03162 µM). The relative viability with Carfilzomib + Bortezomib (first compound 0.1 µM) amounted to 0.0774.

For HCC-78, the relative viability with Carfilzomib + AZD7762 (first compound 0.001 µM) amounted to 0.505; with Carfilzomib + AZD7762 (first compound 0.003162 µM), 0.772; in the assay with Carfilzomib + AZD7762 (first compound 0.01 µM), 0.789; with Carfilzomib + AZD7762 (first compound 0.03162 µM), 0.492; in the assay with Carfilzomib + AZD7762 (first compound 0.1 µM), 0.311; with Olaparib + Vorinostat (first compound 0.08 µM), 0.443. The relative viability in the assay with Olaparib + Vorinostat (first compound 0.253 µM) was 0.429; with Olaparib + Vorinostat (first compound 2.53 µM) it was 0.377; with Olaparib + Vorinostat (first compound 8 µM), 0.557; in the assay with Crizotinib + Bortezomib (first compound 0.01 µM), 0.437; with Crizotinib + Bortezomib (first compound 0.03162 µM), 0.466; with Crizotinib + Bortezomib (first compound 0.1 µM), 0.472. Further, the relative viability worked out at 0.399 with Crizotinib + Bortezomib (first compound 0.3162 µM); 0.447 with Crizotinib + Bortezomib (first compound 1 µM); 0.474 in the assay with Carfilzomib + Bortezomib (first compound 0.001 µM); 0.514 in the assay with Carfilzomib + Bortezomib (first compound 0.003162 µM); 0.402 with Carfilzomib + Bortezomib (first compound 0.01 µM); 0.192 with Carfilzomib + Bortezomib (first compound 0.03162 µM). For the same cell line, the relative viability with Carfilzomib + Bortezomib (first compound 0.1 µM) was 0.193.

NCI-H2405: the relative viability amounted to 0.717 with Carfilzomib + AZD7762 (first compound 0.001 µM); 0.783 with Carfilzomib + AZD7762 (first compound 0.003162 µM); 0.932 with Carfilzomib + AZD7762 (first compound 0.01 µM); 0.689 with Carfilzomib + AZD7762 (first compound 0.03162 µM); 0.262 with Carfilzomib + AZD7762 (first compound 0.1 µM); 1.28 in the assay with Olaparib + Vorinostat (first compound 0.08 µM). Besides, the relative viability in the assay with Olaparib + Vorinostat (first compound 0.253 µM) turned out to be 0.957; with Olaparib + Vorinostat (first compound 2.53 µM) it was 0.997; with Olaparib + Vorinostat (first compound 8 µM), 0.926; with Crizotinib + Bortezomib (first compound 0.01 µM), 1; with Crizotinib + Bortezomib (first compound 0.03162 µM), 0.997; in the assay with Crizotinib + Bortezomib (first compound 0.1 µM), 1.04. Also, the relative viability with Crizotinib + Bortezomib (first compound 0.3162 µM) is 1.09; with Carfilzomib + Bortezomib (first compound 0.001 µM), 0.926; with Carfilzomib + Bortezomib (first compound 0.003162 µM) it was 1.01; in the assay with Carfilzomib + Bortezomib (first compound 0.01 µM), 1.06; with Carfilzomib + Bortezomib (first compound 0.03162 µM), 0.15; in the assay with Carfilzomib + Bortezomib (first compound 0.1 µM) it was 0.202.

For NCI-H727, the relative viability worked out at 0.511 with Carfilzomib + AZD7762 (first compound 0.001 µM); 0.498 in the assay with Carfilzomib + AZD7762 (first compound 0.003162 µM); 0.685 with Carfilzomib + AZD7762 (first compound 0.01 µM); 0.608 with Carfilzomib + AZD7762 (first compound 0.03162 µM); 0.242 with Carfilzomib + AZD7762 (first compound 0.1 µM); 1.19 with Olaparib + Vorinostat (first compound 0.08 µM). Further, the relative viability in the assay with Olaparib + Vorinostat (first compound 0.253 µM) amounted to 1.08; with Olaparib + Vorinostat (first compound 2.53 µM), 0.983; in the assay with Olaparib + Vorinostat (first compound 8 µM), 0.981; with Crizotinib + Bortezomib (first compound 0.01 µM) it was 0.569; in the assay with Crizotinib + Bortezomib (first compound 0.03162 µM), 0.806; in the assay with Crizotinib + Bortezomib (first compound 0.1 µM) it was 1.01. Besides, the relative viability in the assay with Crizotinib + Bortezomib (first compound 0.3162 µM) is 0.962; with Crizotinib + Bortezomib (first compound 1 µM), 0.988; with Carfilzomib + Bortezomib (first compound 0.001 µM), 0.72; in the assay with Carfilzomib + Bortezomib (first compound 0.003162 µM), 0.77; with Carfilzomib + Bortezomib (first compound 0.01 µM), 0.795; in the assay with Carfilzomib + Bortezomib (first compound 0.03162 µM) it was 0.3. Also, the relative viability with Carfilzomib + Bortezomib (first compound 0.1 µM) was determined as 0.147.

Consider LC-2-ad, for which the relative viability came out at 0.798 in the assay with Carfilzomib + AZD7762 (first compound 0.001 µM); 0.913 in the assay with Carfilzomib + AZD7762 (first compound 0.003162 µM); 0.856 in the assay with Carfilzomib + AZD7762 (first compound 0.01 µM); 0.794 with Carfilzomib + AZD7762 (first compound 0.03162 µM); 0.608 in the assay with Carfilzomib + AZD7762 (first compound 0.1 µM); 0.749 with Olaparib + Vorinostat (first compound 0.08 µM). In addition, the relative viability with Olaparib + Vorinostat (first compound 0.253 µM) came out at 0.604; with Olaparib + Vorinostat (first compound 2.53 µM), 0.66; with Olaparib + Vorinostat (first compound 8 µM), 0.495; in the assay with Crizotinib + Bortezomib (first compound 0.01 µM), 1.06; in the assay with Crizotinib + Bortezomib (first compound 0.03162 µM), 1.07; with Crizotinib + Bortezomib (first compound 0.1 µM) it was 1. Besides, the relative viability came out at 1.04 in the assay with Crizotinib + Bortezomib (first compound 1 µM); 0.947 with Carfilzomib + Bortezomib (first compound 0.001 µM); 1.08 in the assay with Carfilzomib + Bortezomib (first compound 0.003162 µM); 0.482 with Carfilzomib + Bortezomib (first compound 0.01 µM); 0.132 with Carfilzomib + Bortezomib (first compound 0.03162 µM); 0.0828 with Carfilzomib + Bortezomib (first compound 0.1 µM).
